Data published in ChEMBL document CHEMBL5724914, “Linking interpersonal differences in gut microbiota composition and drug biotransformation activity” (2024).

What was measured:
[1] = human gut metagenome, 24 h, 2 µM
[2] = (§1) The drug is tested on WLS-350 corresponding to human gut metagenome with ENA study accession number: PRJEB37062 and ENA sample accession number: ERS12561789 for biotransformation under anaerobic condition. The drug concentrations were measured over 9 timepoints collected between 0 and 24 hours of incubation by liquid-chromatography-coupled mass spectrometry (LC–MS); details: 2 µM
[3] = as §1, with “Z-029” for “WLS-350”, “rat” for “human”, “ERS12561828” for “ERS12561789”; details: 2 µM
[4] = as §1, with “WLS-086” for “WLS-350”, “ERS12561752” for “ERS12561789”; details: 2 µM
[5] = as §1, with “Z-024” for “WLS-350”, “pig” for “human”, “ERS12561823” for “ERS12561789”; details: 2 µM
[6] = human gut metagenome, 24 h, 2 µM; remark: listed apart in the source
[7] = human gut metagenome, 24 h, 2 µM; remark: listed apart in the source
[8] = as §1, with “Z-003” for “WLS-350”, “pig” for “human”, “ERS12561803” for “ERS12561789”; details: 2 µM
[9] = human gut metagenome, 24 h, 2 µM; remark: listed apart in the source
[10] = human gut metagenome, 24 h, 2 µM; remark: listed apart in the source
[11] = human gut metagenome, 24 h, 2 µM; remark: listed apart in the source
[12] = as §1, with “WLS-069” for “WLS-350”, “ERS12561748” for “ERS12561789”; details: 2 µM
[13] = human gut metagenome, 24 h, 2 µM; remark: listed apart in the source
[14] = human gut metagenome, 24 h, 2 µM; remark: listed apart in the source
[15] = human gut metagenome, 24 h, 2 µM; remark: listed apart in the source
[16] = human gut metagenome, 24 h, 2 µM; remark: listed apart in the source
[17] = as §1, with “Z-007” for “WLS-350”, “rat” for “human”, “ERS12561807” for “ERS12561789”; details: 2 µM
[18] = as §1, with “Z-023” for “WLS-350”, “to” for “to human gut”, “ERS12561822” for “ERS12561789”; details: 2 µM
[19] = as §1, with “Z-012” for “WLS-350”, “to” for “to human gut”, “ERS12561812” for “ERS12561789”; details: 2 µM
[20] = as §1, with “Z-008” for “WLS-350”, “to” for “to human gut”, “ERS12561808” for “ERS12561789”; details: 2 µM
Also: call rule not given here.

Row | Bacterial Biotransformation [1] | Bacterial Biotransformation [2] | Bacterial Biotransformation [3] | Bacterial Biotransformation [4] | Bacterial Biotransformation [5] | Bacterial Biotransformation [6] | Bacterial Biotransformation [7] | Bacterial Biotransformation [8] | Bacterial Biotransformation [9] | Bacterial Biotransformation [10] | Bacterial Biotransformation [11] | Bacterial Biotransformation [12] | Bacterial Biotransformation [13] | Bacterial Biotransformation [14] | Bacterial Biotransformation [15] | Bacterial Biotransformation [16] | Bacterial Biotransformation [17] | Bacterial Biotransformation [18] | Bacterial Biotransformation [19] | Bacterial Biotransformation [20] | SMILES
1 | Compound NOT metabolized | Compound NOT metabolized | Compound NOT metabolized | Compound NOT metabolized | Compound metabolized | Compound NOT metabolized | Compound NOT metabolized | Compound metabolized | Compound NOT metabolized | Compound NOT metabolized | Compound NOT metabolized | Compound NOT metabolized | Compound NOT metabolized | Compound NOT metabolized | Compound NOT metabolized | Compound NOT metabolized |  |  |  |  | CN1CCc2cccc3c2[C@H]1Cc1ccc(O)c(O)c1-3 [APOMORPHINE]
2 | Compound NOT metabolized | Compound NOT metabolized |  | Compound metabolized | Compound metabolized | Compound NOT metabolized | Compound NOT metabolized | Compound NOT metabolized | Compound NOT metabolized | Compound NOT metabolized | Compound metabolized | Compound NOT metabolized | Compound metabolized | Compound NOT metabolized | Compound metabolized | Compound NOT metabolized | Compound NOT metabolized | Compound NOT metabolized | Compound NOT metabolized | Compound NOT metabolized | CN1C(=O)CC(C)(c2ccccc2)C1=O (stereo not drawn) [METHSUXIMIDE]
3 | Compound NOT metabolized | Compound NOT metabolized |  | Compound NOT metabolized | Compound metabolized | Compound NOT metabolized | Compound NOT metabolized | Compound NOT metabolized | Compound NOT metabolized | Compound NOT metabolized | Compound NOT metabolized | Compound NOT metabolized | Compound NOT metabolized | Compound NOT metabolized | Compound NOT metabolized | Compound NOT metabolized | Compound NOT metabolized | Compound metabolized | Compound NOT metabolized | Compound NOT metabolized | COc1ccccc1N1CCN(CC(O)COc2cccc3ccccc23)CC1 (stereo not drawn) [NAFTOPIDIL]
4 | Compound NOT metabolized | Compound NOT metabolized |  | Compound NOT metabolized | Compound NOT metabolized | Compound NOT metabolized | Compound metabolized | Compound metabolized | Compound NOT metabolized | Compound NOT metabolized | Compound NOT metabolized | Compound NOT metabolized | Compound NOT metabolized | Compound NOT metabolized | Compound NOT metabolized | Compound NOT metabolized | Compound NOT metabolized | Compound NOT metabolized | Compound NOT metabolized | Compound NOT metabolized | Cc1ccc(/C(=C\CN2CCCC2)c2ccccn2)cc1 [TRIPROLIDINE]
